According to ChEMBL document CHEMBL1201862, “PubChem BioAssay data set” (2004):
Activity calls are given as the source filed them.

Experiments:
[1] = target: T1, Corticotropin-releasing factor receptor 2/Corticotropin-releasing factor-binding protein (Homo sapiens, UniProt P24387+Q13324); experiment: activators of CRF receptor 2 with binding protein – uHTS hits, confirmation (AID 602473); assay type: functional; settings: read-out: EC50_Mean
T1 sequence (Q13324 whole entry): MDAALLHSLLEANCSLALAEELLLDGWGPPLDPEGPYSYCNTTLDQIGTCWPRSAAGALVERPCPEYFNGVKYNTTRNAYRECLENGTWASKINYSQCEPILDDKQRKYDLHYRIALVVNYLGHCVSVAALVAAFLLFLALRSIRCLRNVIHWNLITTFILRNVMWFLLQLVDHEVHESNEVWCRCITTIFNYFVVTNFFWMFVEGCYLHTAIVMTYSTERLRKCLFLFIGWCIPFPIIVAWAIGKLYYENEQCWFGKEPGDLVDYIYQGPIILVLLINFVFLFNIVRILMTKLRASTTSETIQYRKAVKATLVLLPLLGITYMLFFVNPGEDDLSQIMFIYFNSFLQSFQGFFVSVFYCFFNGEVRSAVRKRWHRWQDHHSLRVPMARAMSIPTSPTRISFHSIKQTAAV
T1 sequence (P24387 whole entry): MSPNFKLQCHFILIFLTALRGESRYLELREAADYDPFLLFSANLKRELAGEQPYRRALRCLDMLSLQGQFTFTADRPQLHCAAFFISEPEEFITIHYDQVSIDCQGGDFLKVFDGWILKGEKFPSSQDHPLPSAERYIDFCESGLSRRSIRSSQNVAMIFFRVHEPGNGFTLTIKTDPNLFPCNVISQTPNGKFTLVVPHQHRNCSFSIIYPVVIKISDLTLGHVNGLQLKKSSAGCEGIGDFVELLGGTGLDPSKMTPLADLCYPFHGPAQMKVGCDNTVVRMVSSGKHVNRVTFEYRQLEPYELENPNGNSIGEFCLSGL

Troponin, cardiac muscle = Troponin, cardiac muscle (Homo sapiens, UniProt P19429+P45379+P63316); experiment: Fluorescence-based biochemical high throughput dose response assay for activators of the calcium sensitivity of cardiac Regulated Thin Filaments (RTF). [Related pubchem assays (depositor defined):AID493008, AID493018, AID504382, AID504383]; assay type: protein-complex assay
[2] = target: T2, Type-1 angiotensin II receptor (Homo sapiens, UniProt P30556); experiment: AT1 receptor agonists, dose response, selectivity assay for APJ receptor agonist project, cell-based, uHTS hits (AID 488865); assay type: functional;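 further: beta-arrestin recruitment to AT1 measured by enzyme fragment complementation luminescence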
T2 sequence (P30556 whole entry): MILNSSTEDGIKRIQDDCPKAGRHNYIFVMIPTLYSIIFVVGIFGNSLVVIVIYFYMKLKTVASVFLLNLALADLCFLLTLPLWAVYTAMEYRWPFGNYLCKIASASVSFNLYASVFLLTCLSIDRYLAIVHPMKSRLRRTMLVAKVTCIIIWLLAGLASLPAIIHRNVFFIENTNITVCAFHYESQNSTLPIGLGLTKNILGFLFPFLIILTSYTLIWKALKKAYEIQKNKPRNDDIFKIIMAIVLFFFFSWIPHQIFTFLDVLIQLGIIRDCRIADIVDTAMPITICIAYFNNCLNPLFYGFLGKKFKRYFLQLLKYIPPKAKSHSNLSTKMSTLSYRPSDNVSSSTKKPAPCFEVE

[3] = growth suppression of PTEN-null colon cells, dose response, cell-based, HCT116 PTEN knockout (AID 1047); assay type: functional;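 further: HCT116 colon tumor cells with PTEN knocked out; cells exposed to compound for 60 hours before readout; potency for loss of cell viability measured by luminescence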
[4] = target: Sphingosine 1-phosphate receptor 1 (Homo sapiens, UniProt P21453); experiment: Fluorescence-based counterscreen assay for S1P4 agonists: Cell-based dose response high throughput screening assay to identify agonists of the Sphingosine 1-Phosphate Receptor 1 (S1P1). [Related pubchem assays (depositor defined):AID1509, AID1523, AID1801, AID463107, AID463118, AID463119, AID463122, AID463123, AID463129, AID463225, AID504400, AID504460]; assay type: functional
[5] = growth suppression of beta-catenin-knockout colon cells, dose response, cell-based, HCT116, human colon tumor (AID 1045); assay type: functional;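 further: HCT116 colon tumor cells with beta catenin knocked out; cells exposed to compound for 60 hours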
[6] = target: Sphingosine 1-phosphate receptor 2 (Homo sapiens, UniProt O95136); experiment: Dose Response Cell Based Assay for Agonists of the S1P2 Receptor. [Related pubchem assays: 729, 736, 843 ]; assay type: functional
[7] = target: Sphingosine 1-phosphate receptor 4 (Homo sapiens, UniProt O95977); experiment: Fluorescence dose response cell-based high throughput screening assay for agonists of the Sphingosine 1-Phosphate Receptor 4 (S1P4). [Related pubchem assays: 1509 (Primary screen.), 1523 (Confirmation screen in triplicates.)]; assay type: functional
HT-1080 = experiment: cytotoxicity in HT1080 fibrosarcoma cells, cell-based, fluorescence readout (AID 620); assay type: functional; settings: Homo sapiens
[8] = target: Luciferin 4-monooxygenase (Photinus pyralis, UniProt P08659); experiment: Counter Screen for Luciferase-based Assay Positives. [Related pubchem assays: 620, 618, 411 ]
[9] = target: Intestinal-type alkaline phosphatase (Homo sapiens, UniProt P09923); experiment: human intestinal alkaline phosphatase activators, dose response, biochemical, luminescence, uHTS hits (AID 463120); assay type: functional
Large T antigen = Large T antigen (Simian virus 40, UniProt P03070); experiment: A confirmatory biochemical assay using the ADP-Hunter methodology, purified TAg, and ATP to quantify activity of synthesized compounds that inhibit the ATPase activity of Tag (3). [Related pubchem assays (depositor defined):AID1903, AID1909, AID2102, AID2501, AID2615, AID2775, AID435001, AID449729]; design: species or system Betapolyomavirus macacae
[10] = SV40 cytopathic effect inhibition and cytotoxicity, confirmation, BSC cells, set 3 (AID 485276); assay type: functional, cell-based
[11] = target: T3, Apoptotic protease-activating factor 1 (Homo sapiens, UniProt O14727); assay type: functional
T3 sequence (O14727 whole entry): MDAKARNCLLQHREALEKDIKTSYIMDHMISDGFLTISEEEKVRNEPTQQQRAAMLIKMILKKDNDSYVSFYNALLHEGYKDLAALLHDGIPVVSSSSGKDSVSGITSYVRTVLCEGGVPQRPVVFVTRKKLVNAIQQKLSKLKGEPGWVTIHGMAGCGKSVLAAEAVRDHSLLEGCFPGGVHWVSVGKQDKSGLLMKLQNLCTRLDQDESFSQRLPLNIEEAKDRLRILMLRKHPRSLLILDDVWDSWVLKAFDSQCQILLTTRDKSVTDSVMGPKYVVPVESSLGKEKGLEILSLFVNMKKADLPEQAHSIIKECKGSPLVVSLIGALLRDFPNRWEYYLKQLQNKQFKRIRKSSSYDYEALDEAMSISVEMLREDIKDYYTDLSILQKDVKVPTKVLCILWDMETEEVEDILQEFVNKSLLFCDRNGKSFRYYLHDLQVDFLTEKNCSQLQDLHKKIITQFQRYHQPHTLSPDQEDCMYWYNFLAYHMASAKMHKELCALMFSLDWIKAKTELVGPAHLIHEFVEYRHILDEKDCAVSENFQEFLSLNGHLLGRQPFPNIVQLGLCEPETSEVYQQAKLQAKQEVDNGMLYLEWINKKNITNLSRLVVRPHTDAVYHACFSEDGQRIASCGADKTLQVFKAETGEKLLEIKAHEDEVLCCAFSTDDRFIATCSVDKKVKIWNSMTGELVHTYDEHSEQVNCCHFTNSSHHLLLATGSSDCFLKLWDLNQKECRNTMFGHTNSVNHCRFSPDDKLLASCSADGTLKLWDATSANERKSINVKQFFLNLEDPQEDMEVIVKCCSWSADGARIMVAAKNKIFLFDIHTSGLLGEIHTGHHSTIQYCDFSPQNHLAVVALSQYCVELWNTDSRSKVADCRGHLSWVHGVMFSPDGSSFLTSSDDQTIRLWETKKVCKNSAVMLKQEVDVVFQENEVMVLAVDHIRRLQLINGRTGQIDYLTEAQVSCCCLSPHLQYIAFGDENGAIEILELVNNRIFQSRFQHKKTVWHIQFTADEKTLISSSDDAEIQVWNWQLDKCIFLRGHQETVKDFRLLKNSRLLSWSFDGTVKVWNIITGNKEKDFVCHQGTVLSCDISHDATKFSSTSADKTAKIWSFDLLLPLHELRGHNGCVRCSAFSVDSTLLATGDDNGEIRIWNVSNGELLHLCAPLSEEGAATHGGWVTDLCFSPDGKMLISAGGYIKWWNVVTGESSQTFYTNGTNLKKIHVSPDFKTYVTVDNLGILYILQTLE

BJ [12] = experiment: cytotoxicity toward Ras-transformed BJeLR fibroblasts, dose response, cell-based, alamar blue fluorescence, cherrypicked samples (AID 2631); assay type: functional; settings: Homo sapiens;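 further: confirmatory dose-response assay in RAS-dependent BJ fibroblasts engineered with TERT, LT and ST, with cytotoxicity read by fluorescence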
[13] = NIH-3T3 fibroblast cytotoxicity, dose response, cytotoxicity control, cell-based, fluorescence, Alamar Blue, secondary assay (AID 2327); assay type: functional;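 further: NIH-3T3 mouse fibroblasts cultured with fluconazole at 8 µg/mL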
Hexokinase HKDC1 = target: T4, Hexokinase HKDC1 (Homo sapiens, UniProt Q2TB90); experiment: HKDC1 hexokinase activators, dose response, biochemical, W721R variant (AID 504730); assay type: functional
T4 sequence (Q2TB90 whole entry): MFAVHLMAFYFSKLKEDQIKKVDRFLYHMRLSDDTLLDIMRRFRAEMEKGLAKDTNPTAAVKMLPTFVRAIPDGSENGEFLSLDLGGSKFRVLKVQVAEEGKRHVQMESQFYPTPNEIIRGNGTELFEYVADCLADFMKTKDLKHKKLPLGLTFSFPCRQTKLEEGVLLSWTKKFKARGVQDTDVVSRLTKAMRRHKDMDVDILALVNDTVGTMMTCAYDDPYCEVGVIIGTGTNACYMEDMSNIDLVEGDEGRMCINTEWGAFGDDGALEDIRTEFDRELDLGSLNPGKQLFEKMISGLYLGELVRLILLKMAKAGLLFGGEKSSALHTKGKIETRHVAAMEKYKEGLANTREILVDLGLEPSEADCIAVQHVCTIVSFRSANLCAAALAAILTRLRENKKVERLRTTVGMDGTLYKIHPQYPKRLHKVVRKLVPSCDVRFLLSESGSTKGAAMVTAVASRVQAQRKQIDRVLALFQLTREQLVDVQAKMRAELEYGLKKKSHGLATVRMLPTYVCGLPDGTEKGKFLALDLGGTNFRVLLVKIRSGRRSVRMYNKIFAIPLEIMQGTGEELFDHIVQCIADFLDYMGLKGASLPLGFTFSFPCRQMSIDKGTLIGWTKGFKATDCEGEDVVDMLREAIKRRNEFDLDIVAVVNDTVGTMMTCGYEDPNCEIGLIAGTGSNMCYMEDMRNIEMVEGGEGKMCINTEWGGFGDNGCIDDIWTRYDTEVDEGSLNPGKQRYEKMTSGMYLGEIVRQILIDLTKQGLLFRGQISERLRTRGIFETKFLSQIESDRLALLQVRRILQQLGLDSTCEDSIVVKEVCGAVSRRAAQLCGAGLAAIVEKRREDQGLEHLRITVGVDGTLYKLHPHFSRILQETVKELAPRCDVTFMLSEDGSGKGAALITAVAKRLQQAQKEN

INS1 = experiment: beta cell apoptosis inhibitors, cytokine rescue, dose response, luminescence, retest (AID 449756); assay type: functional, cell-based; settings: Rattus norvegicus;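 further: cell death triggered by IL-1 beta plus TNF-alpha plus IFN-gamma mixture; protective hits raise ATP signal compared with cytokine alone wells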
Hexokinase-1 = Hexokinase-1 (Homo sapiens, UniProt P19367); experiment: hexokinase 1 activators, dose response, selectivity assay for HKDC1 activator project, biochemical (AID 504762); assay type: functional
BJ [14] = experiment: cytotoxicity toward BJ-TERT fibroblasts, dose response, cell-based, RAS-independent, luminescence (AID 1933); assay type: functional; settings: Homo sapiens
[15] = Luminescence Cell-Based Dose Response HTS to Identify Inhibitors of 5'UTR Stem-Loop Driven Prion Protein mRNA Translation in H4 Neuroglioblastoma Cells. [Related pubchem assays: 1827 (Project Summary), 1813 (Primary HTS)]; assay type: functional
BJ [16] = experiment: cells; assay type: functional, cell-based; settings: Homo sapiens
[17] = cytotoxicity in HEK-293T cells, dose response, cytotoxicity control for TCR NF-kB inhibitor project, luminescence, T-cell screen hits (AID 489026); assay type: functional, cell-based;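 further: cells exposed to compound about 14 hours before the viability readout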
[18] = cytotoxicity toward DRD oncogenic fibroblasts, dose response, cell-based, non-viral oncogenic, luminescence (AID 1934); assay type: functional; settings: Homo sapiens
[19] = C. albicans growth with fluconazole, confirmation, fluorescence, retest (AID 2467); assay type: functional, cell-based
[20] = inhibitors of firefly luciferase expression or activity, dose response, H4 neuroglioma cells, luminescence (AID 1990); assay type: functional, cell-based
[21] = inhibitors of SNCA 5'UTR-driven reporter translation, confirmation, H4 neuroglioma cells, luminescence (AID 1988); assay type: functional, cell-based
HEK293 = experiment: inhibitors of LMP1-driven NF-kB reporter, dose response, cell-based, HEK293, luciferase, cherry-pick (AID 588343); assay type: functional; settings: Homo sapiens

Hexokinase-1, sequence (P19367 whole entry): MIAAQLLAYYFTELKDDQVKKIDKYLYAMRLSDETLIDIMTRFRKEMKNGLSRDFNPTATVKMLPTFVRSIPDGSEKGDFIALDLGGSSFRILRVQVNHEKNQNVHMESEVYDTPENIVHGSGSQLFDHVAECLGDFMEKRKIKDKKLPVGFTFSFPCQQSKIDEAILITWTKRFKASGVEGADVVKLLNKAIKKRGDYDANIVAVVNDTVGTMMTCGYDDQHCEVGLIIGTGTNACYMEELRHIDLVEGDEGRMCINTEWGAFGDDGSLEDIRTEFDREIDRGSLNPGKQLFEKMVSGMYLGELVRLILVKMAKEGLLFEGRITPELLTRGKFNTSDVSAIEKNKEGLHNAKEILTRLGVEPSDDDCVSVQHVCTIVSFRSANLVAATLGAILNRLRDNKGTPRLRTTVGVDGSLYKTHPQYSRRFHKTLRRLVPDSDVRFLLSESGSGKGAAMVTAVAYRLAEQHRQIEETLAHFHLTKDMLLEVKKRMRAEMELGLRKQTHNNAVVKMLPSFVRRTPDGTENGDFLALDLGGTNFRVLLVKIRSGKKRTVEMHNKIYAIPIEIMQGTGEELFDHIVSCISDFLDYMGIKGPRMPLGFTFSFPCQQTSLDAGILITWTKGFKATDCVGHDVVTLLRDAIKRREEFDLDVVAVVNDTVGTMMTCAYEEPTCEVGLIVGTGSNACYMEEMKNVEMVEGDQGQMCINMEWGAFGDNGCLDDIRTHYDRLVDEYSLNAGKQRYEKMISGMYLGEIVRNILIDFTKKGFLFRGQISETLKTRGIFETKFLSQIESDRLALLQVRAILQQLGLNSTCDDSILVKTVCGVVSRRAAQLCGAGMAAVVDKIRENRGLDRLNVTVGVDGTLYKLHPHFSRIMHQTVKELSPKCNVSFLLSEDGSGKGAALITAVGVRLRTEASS
Sphingosine 1-phosphate receptor 1, sequence (P21453 whole entry): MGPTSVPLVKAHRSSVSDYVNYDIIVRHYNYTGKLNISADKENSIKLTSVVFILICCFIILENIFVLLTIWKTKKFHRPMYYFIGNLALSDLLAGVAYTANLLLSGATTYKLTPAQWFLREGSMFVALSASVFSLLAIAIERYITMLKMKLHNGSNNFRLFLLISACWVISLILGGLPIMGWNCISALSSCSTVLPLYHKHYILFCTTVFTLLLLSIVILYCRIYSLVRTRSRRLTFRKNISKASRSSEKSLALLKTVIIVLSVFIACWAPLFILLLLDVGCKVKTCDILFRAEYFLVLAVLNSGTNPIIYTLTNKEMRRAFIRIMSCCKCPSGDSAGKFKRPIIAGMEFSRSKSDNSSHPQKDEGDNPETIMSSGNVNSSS
Large T antigen, sequence (P03070 whole entry): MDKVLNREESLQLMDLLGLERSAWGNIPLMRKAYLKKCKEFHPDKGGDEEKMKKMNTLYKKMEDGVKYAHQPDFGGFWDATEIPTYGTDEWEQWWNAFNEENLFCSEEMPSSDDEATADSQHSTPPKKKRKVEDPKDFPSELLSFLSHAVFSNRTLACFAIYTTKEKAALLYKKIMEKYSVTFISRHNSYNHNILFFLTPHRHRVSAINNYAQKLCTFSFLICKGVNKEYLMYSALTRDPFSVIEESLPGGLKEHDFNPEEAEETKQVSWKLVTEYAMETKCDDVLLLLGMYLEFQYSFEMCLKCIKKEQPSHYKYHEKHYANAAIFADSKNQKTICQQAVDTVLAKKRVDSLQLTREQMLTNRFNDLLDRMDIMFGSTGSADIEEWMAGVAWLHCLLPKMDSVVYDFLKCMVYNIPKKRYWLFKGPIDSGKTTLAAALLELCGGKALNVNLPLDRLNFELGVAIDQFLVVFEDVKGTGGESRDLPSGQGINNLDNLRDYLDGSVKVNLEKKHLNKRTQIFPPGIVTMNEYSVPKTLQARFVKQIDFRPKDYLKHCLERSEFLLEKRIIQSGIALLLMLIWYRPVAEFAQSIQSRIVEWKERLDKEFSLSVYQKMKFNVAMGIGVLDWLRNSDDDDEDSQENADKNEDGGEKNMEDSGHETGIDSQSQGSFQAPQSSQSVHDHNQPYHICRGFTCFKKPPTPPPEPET
Luciferin 4-monooxygenase, sequence (P08659 whole entry): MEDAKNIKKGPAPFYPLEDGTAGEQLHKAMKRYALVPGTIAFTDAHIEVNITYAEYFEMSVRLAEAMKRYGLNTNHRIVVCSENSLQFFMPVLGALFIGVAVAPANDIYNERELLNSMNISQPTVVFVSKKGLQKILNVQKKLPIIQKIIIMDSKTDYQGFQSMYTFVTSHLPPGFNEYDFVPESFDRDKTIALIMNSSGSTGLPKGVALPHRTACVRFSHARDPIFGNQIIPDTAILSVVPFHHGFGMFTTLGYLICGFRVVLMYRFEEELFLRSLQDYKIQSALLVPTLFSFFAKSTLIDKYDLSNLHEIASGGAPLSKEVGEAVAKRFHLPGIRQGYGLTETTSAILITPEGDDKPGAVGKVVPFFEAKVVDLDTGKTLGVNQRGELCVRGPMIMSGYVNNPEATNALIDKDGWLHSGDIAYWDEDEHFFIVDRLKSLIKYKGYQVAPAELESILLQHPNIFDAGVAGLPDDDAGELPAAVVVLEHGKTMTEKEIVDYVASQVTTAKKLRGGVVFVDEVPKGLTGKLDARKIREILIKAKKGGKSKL
Sphingosine 1-phosphate receptor 2, sequence (O95136 whole entry): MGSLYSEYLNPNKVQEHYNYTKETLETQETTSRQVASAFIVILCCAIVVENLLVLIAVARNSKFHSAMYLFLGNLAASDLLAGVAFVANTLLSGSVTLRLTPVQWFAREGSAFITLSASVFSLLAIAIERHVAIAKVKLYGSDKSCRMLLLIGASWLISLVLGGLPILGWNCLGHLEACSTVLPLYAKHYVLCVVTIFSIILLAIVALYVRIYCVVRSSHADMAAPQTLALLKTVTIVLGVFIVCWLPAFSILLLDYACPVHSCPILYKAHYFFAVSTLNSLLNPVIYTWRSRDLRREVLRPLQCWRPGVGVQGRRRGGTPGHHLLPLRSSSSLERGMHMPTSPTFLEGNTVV
Sphingosine 1-phosphate receptor 4, sequence (O95977 whole entry): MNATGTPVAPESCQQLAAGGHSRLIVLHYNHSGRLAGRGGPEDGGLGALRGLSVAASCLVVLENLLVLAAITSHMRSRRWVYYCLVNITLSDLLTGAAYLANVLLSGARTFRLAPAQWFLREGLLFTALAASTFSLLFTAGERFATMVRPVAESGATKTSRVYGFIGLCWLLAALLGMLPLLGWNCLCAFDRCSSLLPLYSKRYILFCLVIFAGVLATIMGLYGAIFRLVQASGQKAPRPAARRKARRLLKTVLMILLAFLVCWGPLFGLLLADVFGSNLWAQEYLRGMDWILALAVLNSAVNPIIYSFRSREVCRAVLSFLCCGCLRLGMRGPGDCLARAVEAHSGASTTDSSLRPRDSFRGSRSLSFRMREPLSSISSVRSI
Intestinal-type alkaline phosphatase, sequence (P09923 whole entry): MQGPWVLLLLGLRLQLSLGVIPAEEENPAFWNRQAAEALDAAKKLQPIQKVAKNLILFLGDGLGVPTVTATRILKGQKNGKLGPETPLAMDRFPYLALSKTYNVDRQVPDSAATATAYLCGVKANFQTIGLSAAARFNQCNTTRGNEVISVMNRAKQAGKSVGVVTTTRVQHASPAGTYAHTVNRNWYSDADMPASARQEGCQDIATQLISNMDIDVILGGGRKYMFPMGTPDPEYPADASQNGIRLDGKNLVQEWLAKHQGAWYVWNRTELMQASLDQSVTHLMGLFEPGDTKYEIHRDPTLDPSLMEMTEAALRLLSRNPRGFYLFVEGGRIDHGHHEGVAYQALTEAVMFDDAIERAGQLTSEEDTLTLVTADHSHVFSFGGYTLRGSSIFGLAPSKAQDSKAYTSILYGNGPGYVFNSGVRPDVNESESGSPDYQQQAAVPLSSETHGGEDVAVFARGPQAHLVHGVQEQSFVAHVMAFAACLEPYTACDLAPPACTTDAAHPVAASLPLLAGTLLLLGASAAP

CCOC(=O)c1sc(-c2ccc(F)cc2)cc1NC(=O)Nc1ccccc1OC
EC50 [1]: > 53 µM (inactive)
EC50 (Troponin, cardiac muscle): > 71.4 µM (inactive)

CCCCC1=CC2=CC(=O)C(C)(OC(=O)CC)C(=O)C2=CN1c1ccccc1 (stereo not drawn)
EC50 [2]: > 100 µM (inactive)

CN(C)CCCNS(=O)(=O)c1ccc(N2CCC(c3ccc(Cl)cc3)=N2)cc1
EC50 [3]: 4.53 µM (active)
EC50 [4]: > 0.614 µM (active)
EC50 [5]: 4.67 µM (active)
EC50 [6]: 0.338 µM (active)
EC50 [7]: > 0.614 µM (active)
EC50 (HT-1080): 14.4 µM (active)
EC50 [8]: 1.04 µM (active)

CCC1CCCCN1C1Sc2ccc(C(=O)OC)cc2NC1=O (stereo not drawn)
EC50 [9]: > 100 µM (inactive)

CC(C)c1cc(C(C)(C)c2ccc(O)c(C(C)C)c2)ccc1O
IC50 (Large T antigen): 26.7 µM (active)
IC50 [10]: 11.9 µM (active)

Cc1[nH]n(-c2ccccc2)c(=O)c1/C=N/Nc1nncc(-c2ccccc2)n1
IC50 [11]: 3.5 µM (active)
EC50 (BJ [12]): 0.471 µM (inconclusive)
EC50 [13]: 2.32 µM (active)
EC50 (Hexokinase HKDC1): 6.69 µM (active)
AC50 (INS1): 0.394 µM (active)
EC50 (Hexokinase-1): > 80 µM (inactive)
EC50 (BJ [14]): 2.76 µM (active)
EC50 [15]: 0.155 µM (active)
EC50 (BJ [16]): 3.06 µM (active)
IC50 [17]: > 80 µM (inactive)
EC50 [18]: 2.39 µM (active)
EC50 [19]: 2.54 µM (active)
EC50 [20]: 0.733 µM (active)
EC50 [21]: 0.173 µM (active)
AC50 (HEK293): 2.45 µM (active)
